The source of these data is ChEMBL document CHEMBL1671771, “Bismuth heterocycles based on a diphenyl sulfone scaffold: synthesis and substituent effect on the antifungal activity against Saccharomyces cerevisiae” (Eur J Med Chem, 2011).

This assay deals with Saccharomyces cerevisiae. Description: Antifungal activity against Saccharomyces cerevisiae W303-1A at 30 mM after 48 hrs. The assay is classed as functional, organism-based.

Substance “1,10-Dichlorophenothiabismine 5,5-dioxide” returned an inhibition zone (IZ) of 13 mm.

Take “10-Chloro-2-trifluoromethylphenothiabismine 5,5-dioxide”: the inhibition zone (IZ) was determined as 11 mm.

The substance “4,10-Dichlorophenothiabismine 5,5-dioxide” registered an inhibition zone (IZ) of 10 mm.

Take “10-chlorobenzo[b][1,4]benzothiabismine 5,5-dioxide”: the inhibition zone (IZ) worked out at 18 mm.

With “10-Chloro-2-phenylphenothiabismine 5,5-dioxide”, the inhibition zone (IZ) is 0 mm.

The substance “10-Chloro-2-methoxyphenothiabismine 5,5-dioxide” came in with an inhibition zone (IZ) of 11 mm.

On to “10-(4-Dimethylaminobenzoyloxy)phenothiabismine 5,5-dioxide”, for which the inhibition zone (IZ) was found to be 13 mm.

“10-(N,N-Diethyldithiocarbamoyl)phenothiabismine 5,5-dioxide”: the inhibition zone (IZ) was 0 mm.

“10-(4-Nitrobenzoyloxy)phenothiabismine 5,5-dioxide” had an inhibition zone (IZ) of 17 mm.

For the substance “10-Chloro-2-dimethylaminophenothiabismine 5,5-dioxide”, the inhibition zone (IZ) was determined as 7 mm.

In the case of “10-(Pyrrolidinedithiocarbamoyl)phenothiabismine 5,5-dioxide”, the inhibition zone (IZ) was found to be 0 mm.

Substance “10-Chloro-2-fluorophenothiabismine 5,5-dioxide” had an inhibition zone (IZ) of 17 mm.

Substance “10-Chloro-2-methylphenothiabismine 5,5-dioxide” returned an inhibition zone (IZ) of 14 mm.

In turn, “2,10-Dichlorophenothiabismine 5,5-dioxide” registered an inhibition zone (IZ) of 13 mm.

With “2,8-Dihydroxy-10-chlorophenothiabismine 5,5-dioxide”, the inhibition zone (IZ) was 8 mm.

As to “10-Chloro-3-methylphenothiabismine 5,5-dioxide”, the inhibition zone (IZ) is 8 mm.

“10-Chloro-2-tert-butylphenothiabismine 5,5-dioxide” gave an inhibition zone (IZ) of 0 mm.

Turning to “tert-butyl-[2-[tert-butyl(dimethyl)silyl]oxy-10-chloro-5,5-dioxo-benzo[b][1,4]benzothiabismin-8-yl]oxy-dimethyl-silane”, the inhibition zone (IZ) worked out at 0 mm.
